Experimental findings from ChEMBL document CHEMBL5518202, “Discovery of a Potent Nicotinamide Phosphoribosyltransferase Activator for Improving Aging-associated Dysfunctions” (J Med Chem, 2024) are described below.

Molecules are shown by their SMILES.

In the assay the target is Nicotinamide phosphoribosyltransferase (Homo sapiens, UniProt P43490). The experiment in a line: Binding affinity to NAMPT (unknown origin) assessed as dissociation constant incubated for 30 mins by microscale thermophoresis analysis. (In general: In MST a laser heats a spot of the sample, and binding alters the fluorescence response.)
Nicotinamide phosphoribosyltransferase, sequence (P43490 whole entry): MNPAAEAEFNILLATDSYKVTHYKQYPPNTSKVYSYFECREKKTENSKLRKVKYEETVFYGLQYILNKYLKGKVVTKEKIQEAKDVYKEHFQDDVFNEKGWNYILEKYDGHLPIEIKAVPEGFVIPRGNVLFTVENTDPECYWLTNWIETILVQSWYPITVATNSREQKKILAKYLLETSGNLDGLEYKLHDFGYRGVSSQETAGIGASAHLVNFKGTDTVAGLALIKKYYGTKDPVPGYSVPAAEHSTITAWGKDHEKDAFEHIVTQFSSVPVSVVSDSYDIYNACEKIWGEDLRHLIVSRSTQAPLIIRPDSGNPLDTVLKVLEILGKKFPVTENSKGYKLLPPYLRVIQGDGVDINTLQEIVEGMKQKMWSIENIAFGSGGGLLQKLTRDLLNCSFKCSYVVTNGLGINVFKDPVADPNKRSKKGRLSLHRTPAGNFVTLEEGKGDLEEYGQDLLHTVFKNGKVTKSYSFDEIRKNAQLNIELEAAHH

For orientation: Kd means a measure of binding affinity in units of concentration. On to `O=C(NCc1ccncc1)Nc1ccc(S(=O)(=O)N2CC3CCC(C2)O3)cc1`, for which the Kd worked out at 6.82 µM.
